The subject of this experiment is Escherichia coli. Kind of experiment: Antibacterial activity against Escherichia coli. In kind it is functional, organism-based.

SMILES strings stand for the structures. Calls of active or inactive are those of the source. The calls are words filed in the database; no cut-off is given here.

`O=C1O/C(=C\C=C\CO)C=C1/C=C/CO`: the result was inactive.

The values are drawn from ChEMBL document CHEMBL1150182, “Lissoclinolide, the first non-nitrogenous metabolite from a Lissoclinum tunicate” (J Nat Prod, 1990).
